As a reminder, the Kd is the equilibrium constant for the complex coming apart. Read a high Kd as a looser complex. A word on the EC50: it is the midpoint of the concentration-response curve. Read a high EC50 as weaker potency.

Assay [1] concerns the target T1, Heat shock protein HSP 90-beta (Homo sapiens, UniProt P08238). The assay can be described thus: AlphaScreen Assay. From the text:
AlphaScreen technology based high-throughput (ALPHA) assay is used to identify inhibitors of Hsp90-TPR2A interaction.

Assay [2] addresses T1, Heat shock protein HSP 90-beta. The assay can be described thus: Cell Proliferation Assay. As to conditions: 37 °C. The source says:
Cell assay using BT474, SKBR3 and MCF-12F cell lines measured by WST-1 colorimetric cell proliferation assay.

T1 sequence (P08238 whole entry): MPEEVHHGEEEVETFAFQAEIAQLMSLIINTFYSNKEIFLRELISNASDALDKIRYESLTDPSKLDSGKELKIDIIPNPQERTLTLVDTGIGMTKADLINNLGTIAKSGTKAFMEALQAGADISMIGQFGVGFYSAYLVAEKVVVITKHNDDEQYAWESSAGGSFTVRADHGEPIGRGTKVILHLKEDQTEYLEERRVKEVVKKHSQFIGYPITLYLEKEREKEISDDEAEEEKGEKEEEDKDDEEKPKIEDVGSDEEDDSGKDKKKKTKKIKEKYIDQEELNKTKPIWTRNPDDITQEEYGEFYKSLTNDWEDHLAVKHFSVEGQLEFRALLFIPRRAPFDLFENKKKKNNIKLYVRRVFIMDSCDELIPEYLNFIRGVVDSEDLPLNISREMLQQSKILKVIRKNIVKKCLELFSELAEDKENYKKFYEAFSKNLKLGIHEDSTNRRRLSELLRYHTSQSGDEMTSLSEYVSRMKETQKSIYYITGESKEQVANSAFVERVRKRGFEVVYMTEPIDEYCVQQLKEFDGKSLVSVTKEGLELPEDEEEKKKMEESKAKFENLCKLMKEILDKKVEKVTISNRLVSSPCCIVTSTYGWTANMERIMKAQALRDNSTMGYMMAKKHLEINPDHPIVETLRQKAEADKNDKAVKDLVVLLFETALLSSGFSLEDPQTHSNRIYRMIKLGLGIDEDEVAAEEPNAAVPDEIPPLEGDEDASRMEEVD

In assay [1], `Cc1nc2c(=O)n(C)c(=O)nc-2n(C)n1` [1,3,6-Trimethyl-1H-pyrimido[5,4-e][1,2,4]triazine-5,7-dione] gave a Kd of 0.492 µM. Moreover, in assay [2], the EC50 was determined as 0.946 µM.
For `Cn1nc(-c2ccccc2)nc2c(=O)n(C)c(=O)nc1-2` [1,6-dimethyl-3-phenyl-1H,5H,6H,7H-pyrimido[5,4-e][1,2,4]triazine-5,7-dione, 10] the same measures were 0.585 µM and 0.69 µM.
For `CCCc1nc2c(=O)n(C)c(=O)nc-2n(C)n1` [1,6-dimethyl-3-propyl-pyrimido[5,4-e][1,2,4]triazine-5,7-dione] the same measures were 0.414 µM and 0.917 µM.
For `CCn1nc(-c2ccccc2)nc2c(=O)n(C)c(=O)nc1-2` [1-Ethyl-6-methyl-3-phenyl-1H-pyrimido[5,4-e][1,2,4]triazine-5,7-dione], binding in assay [1] was characterised by a dissociation constant (Kd) of 0.36 µM. For the same molecule, in assay [2], the EC50 was 1.72 µM.
The corresponding values for `CCn1nc(-c2cccs2)nc2c(=O)n(C)c(=O)nc1-2` [1-ethyl-6-methyl-3-thiophen-2-yl-pyrimido[5,4-e][1,2,4]triazine-5,7-dione] are 0.365 µM and 1.21 µM.
The corresponding values for `CCn1nc(Cc2ccccc2)nc2c(=O)n(C)c(=O)nc1-2` [3-benzyl-1-ethyl-6-methyl-1H,5H,6H,7H-pyrimido[5,4-e][1,2,4]triazine-5,7-dione, 13] are 0.182 µM and 4.27 µM.

These data come from BindingDB's records for doi:10.1021/cb800162x (Yale University, 2008).
